Like-named read-outs stand apart in the source and are kept apart here.

These results are taken from US20170000784A1, “Autophagy Inhibitors” (priority 2013, published 2017).

Experiment [1] concerns P. falciparum K1 (CQ resistant). Put plainly: microbe, parasite or virus in culture. It counts as cell-based, Plasmodium falciparum. To be noted: for antimalarial activity score: K1 strain; for IC50: Plasmodium falciparum, K1, Erythrocyte, read-out: Antimalarial activity (IC50) P. falciparum K1 (CQ resistant). The procedure:
In this example, compounds of Formula A, Formula A^1, Formula A^2, Formula A^3 or pharmaceutically acceptable salts thereof, are tested in Plasmodium sp infected cells to determine the effectiveness of these compounds to determine their anti-malarial activity. […] After 24 hours, plates were harvested with a Betaplate™ cell harvester (Wallac, Zurich Switzerland) which transferred the red blood cells onto a glass fiber filter and washed with distilled water. Dried filters were inserted into a plastic foil with 10 mL of scintillation fluid and counted in a Betaplate™ liquid scintillation counter (Wallac, Zurich Switzerland). Results were obtained as counts per minute (cpm) per well at each concentration.

Experiment [2] has as its system endogenous LC3 in U2OS cells. Put plainly: Western blot of endogenous LC3 (LC3-II accumulation) in U2OS. Type of experiment: cell-based. The following applies: dose response, three hours, FIG. 11A. The procedure:
For Western blotting, U2OS cells were seeded in 10 cm plates in 5A McCoy's with 10% FBS at 1×10^6 cells per plate. […] After treatment, cells were lysed [10 mM KPO4, 1 mM EDTA, 10 mM MgCl2, 5 mM EGTA, 50 mM bis-glycerophosphate, 0.5% NP40, 0.1% Brij35, 0.1% sodium deoxycholate, 1 mM NaVO4, 5 mM NaF, 2 mM DTT, and complete protease inhibitors (Sigma, P8340-5 mL)] and 50 μg of protein was resolved by SDS-PAGE. […] Proteins were detected with enhanced chemiluminescence or using the Odyssey machine and quantified (FIGS. 12, 15, 16, 7 and 11).
In general terms: In western blotting, separated proteins are transferred to a membrane and probed.

The test system of experiment [3] is P. falciparum NF54 (CQ sensitive). Put plainly: In vitro P. falciparum asexual blood stage, [3H]-hypoxanthine, NF54. Type of experiment: cell-based, Plasmodium falciparum. To be noted: for antimalarial activity score: NF54 strain; for IC50: Plasmodium falciparum, NF54, Erythrocyte, read-out: Antimalarial activity (IC50) P. falciparum NF54 (CQ sensitive). The procedure: In this example, compounds of Formula A, Formula A^1, Formula A^2, Formula A^3 or pharmaceutically acceptable salts thereof, are tested in Plasmodium sp infected cells to determine the effectiveness of these compounds to determine their anti-malarial activity. Exemplary compounds, Example 7 and Example 27 (See Table 1) were dissolved in DMSO at 10 mg/mL and 4× compound dilutions were prepared in screening medium [RPMI 1640 with no hypoxanthine, HEPES (5.94 μg/L), NaHCO3 (2.1 μg/L), Neomycin (100 μg/mL), and Albumax II (5 μg/L)]. Human red blood cells were prepared without and with stock cultures of P. falciparum strains, NF54 (Chloroquinine (CQ) sensitive) and K1 (CQ resistant), to a parasitemia of 0.3% and hematocrit of 2.5%. Using a 96-well plate, 100 μL/well of red blood solution was added along with a 2-fold serial dilution of Example 7 and Example 27. Plates were incubated at 37° C. with 93% N2, 4% CO2, and 3% O2 for 48 hours, after which 50 μL of [3H]-hypoxanthine (0.5 μCi) was added to each well. After 24 hours, plates were harvested with a Betaplate™ cell harvester (Wallac, Zurich Switzerland) which transferred the red blood cells onto a glass fiber filter and washed with distilled water. Dried filters were inserted into a plastic foil with 10 mL of scintillation fluid and counted in a Betaplate™ liquid scintillation counter (Wallac, Zurich Switzerland). Results were obtained as counts per minute (cpm) per well at each concentration.

In experiment [4] the test system is Plasmodium berghei. Put plainly: In vivo compound efficacy in Plasmodium berghei. To be noted: mice; oral 50 mg/kg at 4, 24, 48 and 72 hours post-infection; day 4. As for the experimental part:
Mice were infected intravenously with parasitized red blood cells on day 0 (2×10^7 parasitized erythrocytes per mL). Experimental mice were treated at 4, 24, 48, and 72 hours post-infection with an oral dose of Example 7 at 50 mg/kg and were compared to an infected control group for the % reduction in parasitaemia on day 4 (96 hours post-infection) and for mean survival (monitored up to 30 days post-infection). A compound was considered curative if the animal survived to day 30 after infection with no detectable parasites.
The potent anti-malarial activity of Example 7, combined with its therapeutic window in vitro, led us to explore its activity in vivo using a murine model of malaria. Mice are infected with the murine specific Plasmodium, P. berghei, after which an antimalarial treatment regimen is given. Example 7 was given at 50 mg/kg at times 4, 24, 48, and 72 hours post-infection of mice already infected with P. berghei. The reduction in parasitemia, measured as the total blood load of the P. berghei parasite, was compared to an infected control group for the percent reduction of parasite on day 4 (96 hours post-infection). Example 7 was unexpectedly shown to be effective in reducing parasitemia by 99% compared to the infected control group after 4 days, making it an effective antimalarial in these preclinical models.

In general, IC50 refers to the concentration needed to halve the response being measured. Consider `CN1CCN(CCNc2c3c(nc4cc(Cl)ccc24)CCCC3)CC1` [Example 27, 6-Chloro-N-(2-(4-methylpiperazin-1-yl)ethyl)-1,2,3,4-tetrahydroacridin-9-amine], for which, in experiment [1], the antimalarial activity score entry is on record as “low activity (low activity: IC50 50-1000 ng/mL)” and the IC50 amounted to 131 nM. In addition, the “accumulation of LC3-II” value in experiment [2] is “increased accumulation of LC3-II”. Also, in experiment [3], the antimalarial activity score result is on record as “low activity (low activity: IC50 50-1000 ng/mL)” and the IC50 came to 323 nM.

For `COc1ccc2nc3cc(Cl)ccc3c(NCCCCN3CCN(C)CC3)c2c1` [Example 7, 6-Chloro-2-methoxy-N-(4-(4-methylpiperazin-1-yl)butyl)acridin-9-amine], the “reduction in parasitemia compared to the infected control group” value in experiment [4] came out at 99%. For the same molecule, the antimalarial activity score entry in experiment [1] and in experiment [3] was “good activity (good activity: IC50<50 ng/mL)” in each case. The IC50 in experiment [1] stood at 23 nM; in experiment [3] (in vitro, infected human red blood cells) it was 4 nM. Further, in experiment [2], the “accumulation of LC3-II” value is given as “increased accumulation of LC3-II”.
